Read-outs that look alike come from different tables or passages of the source.
How the values were obtained:
[1] = system: NFF (neonatal foreskin fibroblasts); test: Cytotoxicity (MTT proliferation assay) against neonatal foreskin fibroblasts; assay type: cell-based, Human
Experimental: (§1) The normal cell line NFF (neonatal foreskin fibroblasts) was a gift from Dr. Peter Parsons (Queensland Institute of Medical Research). RK (rabbit kidney) cells were obtained from Miller Whalley (Macquarie University). Both cell lines were cultured in RPMI supplemented with 10% FCS (CSL, Australia), penicillin (100 U/ml), streptomycin ([…]), L-glutamine (2 mM) and sodium bicarbonate (1.2 g/L), and cultured at 37° C. in a humidified atmosphere of 5% CO2
(§2) IC50 values were determined for each cell line. Cells were seeded in 96-well plates at an appropriate cell density as determined from growth kinetics analysis and cultured for 5 days in the absence and presence of the test compounds. Cell proliferation was assessed after the addition of 20 μl of 3-4,5 dimethylthiazol-2,5-diphenyl tetrazolium bromide (MTT, 2.5 mg/ml in PBS, Sigma) for 3-4 hrs at 37° C. according to manufacturer's instructions. IC50 values were calculated from semi-log plots of % of control proliferation on the y-axis against log dose on the x-axis.

[2] = system: PC3; test: MTT proliferation assay, prostate PC3; assay type: cell-based; settings: Homo sapiens, PC-3
Experimental: (§3) An cultures were supplemented with 10% FCS (CSL, Australia), penicillin (100 U/ml), streptomycin ([…]), L-glutamine (2 mM) and sodium bicarbonate (1.2 g/L), and cultured at 37° C. in a humidified atmosphere of 5% CO2. All cell lines were purchased from ATCC (Maryland, USA) except where noted.
as §2

[3] = system: CP70; test: MTT proliferation assay, ovarian CP70; assay type: cell-based
[4] = system: HTB-138; test: MTT proliferation assay, glioma HTB-138; assay type: cell-based
Experimental: as §3, §2

[5] = system: CCRF-CEM; test: MTT proliferation assay, leukaemia (ALL) CCRF-CEM; assay type: cell-based; settings: Homo sapiens, Table 2.2
Experimental: as §3, §2

[6] = system: NCI-H460; test: MTT proliferation assay, NSC lung NCI-H460; assay type: cell-based; settings: Homo sapiens; NSC Lung NCI-H460, Table 2.2
Experimental: as §3, §2

[7] = system: murine macrophages (RAW 264.7) stimulated with LPS; test: Eicosanoid synthesis in LPS-stimulated RAW 264.7 macrophages; assay type: cell-based, mouse; settings: test compound 10 μM, LPS 50 ng/ml, 16 hrs; negative = inhibition
Experimental: The mouse macrophage cell line RAW 264.7 was cultured in DMEM supplemented with foetal calf serum (FCS), 2 mM glutamine and 50 U/ml penicillin/streptomycin. Subconfluent cells were detached from the flask by gentle scraping and 24-well plates seeded at 5×10^5 cells per well and allowed to adhere for 1 hr. Cells were then treated either test compound at a concentration of 10 μM (in 0.025% DMSO) or vehicle alone, and incubated for 1 hr. LPS 50 ng/ml (LPS—Sigma-Aldrich) was then added. After incubation for 16 hrs, culture media was collected and stored at −80° C. for ecosanoid measurements using enzyme immunometric assays (PGE2 and TXB2—Cayman Chemical).

[8] = system: HPAC; test: MTT proliferation assay, pancreatic HPAC; assay type: cell-based; settings: Homo sapiens, Table 2.2
[9] = system: MM200; test: MTT proliferation assay, melanoma MM200; assay type: cell-based
[10] = system: MDA-MB-468; test: MTT proliferation assay, breast MDA-MB-468; assay type: cell-based; settings: Homo sapiens
[11] = system: HT-29; test: MTT proliferation assay, colorectal HT-29; assay type: cell-based; settings: Homo sapiens; Colorectal HT-29, Table 2.2; read-out: IC50
Experimental: as §3, §2

[12] = system: RK (rabbit kidney) cells; test: Cytotoxicity (MTT proliferation assay) against rabbit kidney cells; assay type: cell-based; settings: Oryctolagus cuniculus; rabbit kidney cells
Experimental: as §1, §2

[13] = system: NCI-H23; test: MTT proliferation assay, lung NCI-H23; assay type: cell-based; settings: Homo sapiens; Lung NCI-H23, Table 2.1; read-out: cytoxicity (IC50)
Experimental: as §3, §2

[14] = Oral pharmacokinetics in female BALB/c mice; assay type: in vivo, mouse; settings: female, BALB/c, mouse, serum, 50 mg/kg; oral; read-out: t1/2
Experimental: Compound No. 1 labelled above was prepared as homogenous suspensions in 1% CMC (m:v, water). The formulation was delivered orally by gavage to female BALB/c mice at a dosage of 50 mg/kg. Three animals were allocated to each timepoint (15 min, 30 min, 1 hr, 4 hr and 24 hr). At each respective timepoint, animals were euthanised by cervical dislocation and blood collected. The concentration of free compound was analysed by mass spectroscopy.

[15] = Prostate PC3, Table 2.2, read-out: IC50
[16] = Ovarian CP70, Table 2.2, read-out: IC50
[17] = Glioma HTB-138, Table 2.2, read-out: IC50
[18] = Melanoma MM200, Table 2.2, read-out: IC50
[19] = Breast MDA-MB-468, Table 2.2, read-out: IC50

Compound: N.N.[Cl][Pt][Cl] [Cisplatin, reference compound]
- IC50 ([1]; non-transformed neonatal foreskin fibroblasts, read-out: IC50): 9 µM
- IC50 ([1]; text says rabbit kidney cells, values are those of the NFF line of Table 1, read-out: degree of toxicity (IC50)): 9.9 µM

Compound: Cc1ccc(C2(O)c3ccc(O)cc3OCC2c2ccc(O)cc2)cc1 (stereo not shown) [Compound 10]
- IC50 [2, 15]: 37.5 ± 0.4 µM
- IC50 [3, 16]: 27.5 µM
- IC50 [4, 17]: 60.2 µM
- IC50 [5]: 40.7 µM
- IC50 [6]: 39.7 µM
- Percentage change in PGE2 synthesis compared with vehicle [7]: −23.1%
- Percentage change in TXB2 synthesis compared with vehicle [7]: −7.1%
- IC50 [8]: 50 µM

Compound: COc1ccc(C2(O)c3ccc(O)cc3OCC2c2ccc(O)cc2)cc1 (stereo not shown) [Compound 11]
- IC50 [2, 15]: > 100 µM
- IC50 [3, 16]: 52.7 ± 13 µM
- IC50 [4, 17]: 86.3 µM
- IC50 [5]: 95.4 µM
- IC50 [9, 18]: 60.4 ± 9.2 µM
- IC50 [6]: > 100 µM
- Percentage change in PGE2 synthesis compared with vehicle [7]: −51.0%
- Percentage change in TXB2 synthesis compared with vehicle [7]: −53.2%
- IC50 [8]: > 100 µM

Compound: COc1ccc(C2COc3cc(OC)ccc3C2(O)c2ccc(OC)cc2)cc1 (stereo not shown) [Compound 12]
- IC50 [2, 15]: 32.8 ± 4.7 µM
- IC50 [3, 16]: > 100 µM
- IC50 [10, 19]: 63.5 ± 4.6 µM
- IC50 [11]: 49.5 ± 32 µM
- IC50 [4, 17]: 47.7 µM
- IC50 [5]: > 100 µM
- IC50 [9, 18]: > 100 µM
- Percentage change in PGE2 synthesis compared with vehicle [7]: −68.3%
- Percentage change in TXB2 synthesis compared with vehicle [7]: −34.0%
- IC50 [8]: 86.3 ± 67 µM

Compound: Oc1ccc(C2COc3cc(O)ccc3C2(O)c2ccccc2)cc1 (stereo not shown) [Compound 14]
- IC50 [2, 15]: 74 ± 4 µM
- IC50 [3, 16]: 61.3 µM
- IC50 [10, 19]: > 100 µM
- IC50 [4, 17]: > 100 µM
- IC50 [5]: 90.2 µM
- IC50 [9, 18]: 72.8 µM
- IC50 [6]: > 100 µM
- Percentage change in PGE2 synthesis compared with vehicle [7]: −23.6%
- Percentage change in TXB2 synthesis compared with vehicle [7]: −40.9%
- IC50 [8]: > 100 µM

Compound: COc1cccc(C2(O)c3ccc(O)cc3OCC2c2ccc(O)cc2)c1 (stereo not shown) [Compound 15]
- IC50 [2, 15]: > 100 µM
- IC50 [3, 16]: 65 ± 1.9 µM
- IC50 [4, 17]: > 100 µM
- IC50 [5]: 81.8 µM
- IC50 [6]: > 100 µM
- Percentage change in PGE2 synthesis compared with vehicle [7]: −38.3%
- Percentage change in TXB2 synthesis compared with vehicle [7]: −58.4%
- IC50 [8]: > 100 µM

Compound: COc1ccc(C2=C(c3ccc(O)cc3)COc3cc(O)ccc32)cc1 [Compound 27]
- IC50 [2, 15]: 28 ± 7.3 µM
- IC50 [3, 16]: 22.4 ± 0.7 µM
- IC50 [4, 17]: 33.7 µM
- IC50 [5]: 16.6 µM
- IC50 [9, 18]: 14.6 µM
- IC50 [6]: 31.6 ± 4.9 µM
- Percentage change in PGE2 synthesis compared with vehicle [7]: −84.2%
- Percentage change in TXB2 synthesis compared with vehicle [7]: −86.1%
- IC50 [8]: 27.6 ± 5.3 µM

Compound: COc1ccc(C2=C(c3ccc(OC)cc3)c3ccc(OC)cc3OC2)cc1 [Compound 28]
- IC50 [2, 15]: 49 ± 16 µM
- IC50 [3, 16]: 62 ± 44 µM
- IC50 [10, 19]: 30.5 ± 4 µM
- IC50 [11]: 29.4 ± 4.4 µM
- IC50 [4, 17]: 62.4 µM
- IC50 [5]: > 100 µM
- IC50 [9, 18]: 64 ± 74 µM
- IC50 [6]: 41.6 µM
- Percentage change in PGE2 synthesis compared with vehicle [7]: −85.1%
- Percentage change in TXB2 synthesis compared with vehicle [7]: −50.1%
- IC50 [8]: 50.7 ± 35 µM

Compound: Oc1ccc(C2=C(c3ccccc3)c3ccc(O)cc3OC2)cc1 [Compound 30]
- IC50 [2, 15]: 45 ± 4.9 µM
- IC50 [3, 16]: 18 µM
- IC50 [10, 19]: > 100 µM
- IC50 [4, 17]: 45.7 µM
- IC50 [5]: 66.6 µM
- IC50 [9, 18]: 33 ± 3 µM
- IC50 [6]: 43.5 ± 9.2 µM
- Percentage change in PGE2 synthesis compared with vehicle [7]: −60.7%
- Percentage change in TXB2 synthesis compared with vehicle [7]: −62.6%
- IC50 [8]: 41 ± 5.3 µM

Compound: COc1cccc(C2=C(c3ccc(O)cc3)COc3cc(O)ccc32)c1 [Compound 31]
- IC50 [2, 15]: 47 ± 8.4 µM
- IC50 [3, 16]: 53.4 µM
- IC50 [11]: > 100 µM
- IC50 [4, 17]: 94.6 µM
- IC50 [5]: 51.5 ± 12 µM
- IC50 [9, 18]: 27.2 ± 4.6 µM
- IC50 [6]: 76.3 µM
- Percentage change in PGE2 synthesis compared with vehicle [7]: −41.4%
- Percentage change in TXB2 synthesis compared with vehicle [7]: −48.3%
- IC50 [8]: 34.6 µM

Compound: COc1ccc(C2=C(c3ccc(O)cc3)COc3c2ccc(O)c3C)cc1 [Compound 32]
- IC50 [2, 15]: 13 ± 0.6 µM
- IC50 [3, 16]: 17.7 ± 5.9 µM
- IC50 [10, 19]: 9.2 ± 5.1 µM
- IC50 [11]: 24.8 ± 3.9 µM
- IC50 [4, 17]: 29 ± 2 µM
- IC50 [5]: 15.4 µM
- IC50 [9, 18]: 12.6 ± 3.7 µM
- IC50 [6]: 39.3 ± 7.7 µM
- Percentage change in PGE2 synthesis compared with vehicle [7]: −71.1%
- Percentage change in TXB2 synthesis compared with vehicle [7]: −34.4%
- IC50 [8]: 35.8 µM

Compound: Oc1ccc(C2=Cc3ccc(O)cc3OC2)cc1 [Phenoxodiol, reference compound]
- IC50 [12]: > 150 µM
- IC50 ([2]; Prostate PC3, Table 2.1, read-out: cytoxicity (IC50)): 9.1 ± 8 µM
- IC50 ([3]; read-out: cytoxicity (IC50)): 11.1 ± 23.6 µM
- IC50 ([10]; MDA-MB-468, read-out: cytoxicity (IC50)): 8.9 ± 4.8 µM
- IC50 ([4]; Glioma HTB-138, Table 2.1, read-out: cytoxicity (IC50)): 20.4 ± 17.5 µM
- IC50 ([9]; read-out: cytoxicity (IC50)): 6.2 ± 4.5 µM
- IC50 [13]: 8.3 ± 6.7 µM
- half-life [14]: ~30 min

Source: US9381186B2, “Substituted chroman derivatives, medicaments and use in therapy” (MEI Pharma, Inc., priority 2004, dated 2016)
